Experimental data reported in ChEMBL document CHEMBL1201862, “PubChem BioAssay data set” (2004).
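Growth conditions: 96-well plates. Treatment: test compound, 48 hours, 5 concentrations. Analysis: linear interpolation between bracketing concentrations; unreached endpoints set to highest concentration. Abbreviation: GI50, concentration required for 50% inhibition of growth.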 Activity calls are given as the source filed them. No stated cut-off is given here; in the data, active = GI50 up to about 1.1 µM and inactive = higher.

Experiments:
Assay in all cases: DTP human tumour cell line panel, 48 h
[1] = tested on: U-251
[2] = tested on: UO-31
[3] = tested on: SNB-19
[4] = tested on: NCI-H226
[5] = tested on: HOP-92
[6] = tested on: PC-3
[7] = tested on: HT-29
[8] = tested on: A498
[9] = tested on: MCF7
[10] = tested on: HCT-15
[11] = tested on: TK-10
[12] = tested on: EKVX
[13] = tested on: SR
[14] = tested on: COLO 205
[15] = tested on: CCRF-CEM
[16] = tested on: RPMI-8226
[17] = tested on: NCI-H522
[18] = tested on: NCI-H23
[19] = tested on: NCI-H460
[20] = tested on: IGROV-1
[21] = tested on: UACC-62
[22] = tested on: K562
[23] = tested on: Malme-3M
[24] = tested on: SF-295
[25] = tested on: HCT-116
[26] = tested on: SK-OV-3
[27] = tested on: 786-0
[28] = tested on: OVCAR-3
[29] = tested on: Hs-578T
[30] = tested on: T47D
[31] = tested on: SNB-75
[32] = tested on: MDA-MB-231
[33] = tested on: BT-549
[34] = tested on: DU-145
[35] = tested on: NCI/ADR-RES
[36] = tested on: UACC-257
[37] = tested on: OVCAR-8
[38] = tested on: SK-MEL-28
[39] = tested on: SF-539
[40] = tested on: KM12
[41] = tested on: HL-60
[42] = tested on: MOLT-4
[43] = tested on: A549
[44] = tested on: SW-620
[45] = tested on: LOX IMVI
[46] = tested on: M14
[47] = tested on: OVCAR-5
[48] = tested on: ACHN
[49] = tested on: SK-MEL-2
[50] = tested on: MDA-N
[51] = tested on: HOP-62
[52] = tested on: OVCAR-4
[53] = tested on: HCC 2998
[54] = tested on: SK-MEL-5
[55] = tested on: MDA-MB-435
[56] = tested on: SN12C
[57] = tested on: SF-268
[58] = tested on: CAKI-1
[59] = tested on: RXF 393

Q: `C=C1CC(COc2ccc3c(C)c(C)c(=O)oc3c2C)(c2ccccc2)OC1=O` (centres undefined) was tested. Which GI50 [1] did it give?
A: Its GI50 is 7.64 µM (inactive).

Q: And the GI50 [2]?
A: The GI50 was 2.77 µM (inactive).

Q: What about the GI50 [3] of the same molecule?
A: Its GI50 is 13.5 µM (inactive).

Q: What about the GI50 [4] of the same molecule?
A: Its GI50 is 2.27 µM (inactive).

Q: And the GI50 [5]?
A: Its GI50 is 1.45 µM (inactive).

Q: What about the GI50 [6] of the same molecule?
A: The GI50 was 1.73 µM (inactive).

Q: And the GI50 [7]?
A: The GI50 was 1.53 µM (inactive).

Q: And the GI50 [8]?
A: Its GI50 is 2.7 µM (inactive).

Q: And the GI50 [9]?
A: Its GI50 is 1.42 µM (inactive).

Q: What about the GI50 [10] of the same molecule?
A: Its GI50 is 1.88 µM.

Q: And the GI50 [11]?
A: Its GI50 is 1.45 µM (inactive).

Q: And the GI50 [12]?
A: The GI50 was 7.55 µM (inactive).

Q: And the GI50 [13]?
A: Its GI50 is 1.46 µM (inactive).

Q: And the GI50 [14]?
A: Its GI50 is 1.6 µM (inactive).

Q: What about the GI50 [15] of the same molecule?
A: Its GI50 is 0.333 µM (active).

Q: What about the GI50 [16] of the same molecule?
A: The GI50 was 0.486 µM (active).

Q: And the GI50 [17]?
A: Its GI50 is 1.64 µM (inactive).

Q: And the GI50 [18]?
A: The GI50 was 2.04 µM (inactive).

Q: And the GI50 [19]?
A: Its GI50 is 6.01 µM (inactive).

Q: What about the GI50 [20] of the same molecule?
A: The GI50 was 1.73 µM (inactive).

Q: And the GI50 [21]?
A: The GI50 was 1.69 µM (inactive).

Q: What about the GI50 [22] of the same molecule?
A: The GI50 was 0.671 µM (active).

Q: What about the GI50 [23] of the same molecule?
A: Its GI50 is 1.62 µM (inactive).

Q: And the GI50 [24]?
A: The GI50 was 5.66 µM (inactive).

Q: What about the GI50 [25] of the same molecule?
A: Its GI50 is 1.41 µM (inactive).

Q: And the GI50 [26]?
A: Its GI50 is 3.28 µM (inactive).

Q: And the GI50 [27]?
A: The GI50 was 1.41 µM (inactive).

Q: And the GI50 [28]?
A: Its GI50 is 2.88 µM (inactive).

Q: What about the GI50 [29] of the same molecule?
A: The GI50 was 4.26 µM (inactive).

Q: What about the GI50 [30] of the same molecule?
A: The GI50 was 2.07 µM (inactive).

Q: And the GI50 [31]?
A: Its GI50 is 2.67 µM (inactive).

Q: And the GI50 [32]?
A: Its GI50 is 2.72 µM (inactive).

Q: And the GI50 [33]?
A: The GI50 was 1.63 µM (inactive).

Q: What about the GI50 [34] of the same molecule?
A: Its GI50 is 2.07 µM (inactive).

Q: And the GI50 [35]?
A: Its GI50 is 2.7 µM (inactive).

Q: And the GI50 [36]?
A: Its GI50 is 0.531 µM (active).

Q: What about the GI50 [37] of the same molecule?
A: The GI50 was 1.72 µM (inactive).

Q: What about the GI50 [38] of the same molecule?
A: Its GI50 is 2.07 µM (inactive).

Q: What about the GI50 [39] of the same molecule?
A: The GI50 was 2.02 µM (inactive).

Q: What about the GI50 [40] of the same molecule?
A: Its GI50 is 2.86 µM (inactive).

Q: And the GI50 [41]?
A: Its GI50 is 0.711 µM (active).

Q: What about the GI50 [42] of the same molecule?
A: The GI50 was 1.11 µM (active).

Q: And the GI50 [43]?
A: The GI50 was 11.7 µM (inactive).

Q: What about the GI50 [44] of the same molecule?
A: The GI50 was 1.22 µM (inactive).

Q: And the GI50 [45]?
A: Its GI50 is 1 µM (active).

Q: And the GI50 [46]?
A: The GI50 was 1.57 µM (inactive).

Q: And the GI50 [47]?
A: Its GI50 is 9.02 µM (inactive).

Q: And the GI50 [48]?
A: Its GI50 is 3.51 µM (inactive).

Q: What about the GI50 [49] of the same molecule?
A: The GI50 was 2.02 µM (inactive).

Q: And the GI50 [50]?
A: The GI50 was 1.87 µM (inactive).

Q: And the GI50 [51]?
A: The GI50 was 6.22 µM (inactive).

Q: And the GI50 [52]?
A: The GI50 was 2.32 µM (inactive).

Q: And the GI50 [53]?
A: The GI50 was 2.48 µM (inactive).

Q: What about the GI50 [54] of the same molecule?
A: Its GI50 is 1.59 µM (inactive).

Q: What about the GI50 [55] of the same molecule?
A: The GI50 was 2.7 µM (inactive).

Q: And the GI50 [56]?
A: Its GI50 is 3.39 µM (inactive).

Q: And the GI50 [57]?
A: The GI50 was 2.64 µM (inactive).

Q: What about the GI50 [58] of the same molecule?
A: Its GI50 is 1.5 µM (inactive).

Q: How did the GI50 [1] turn out when `CC(=O)O[C@H]1C[C@H]2[C@@H](OC(C)=O)/C=C3\C[C@](C)(C(=O)[C@H](O)C(=C1C)C2(C)C)[C@@H](O)C[C@@H]3OC(=O)[C@H](O)[C@H](c1ccccc1)N(C)C` was run?
A: The GI50 was > 100 µM (inactive).

Q: And the GI50 [59]?
A: Its GI50 is > 100 µM (inactive).

Q: And the GI50 [2]?
A: Its GI50 is > 100 µM (inactive).

Q: What about the GI50 [3] of the same molecule?
A: Its GI50 is > 100 µM (inactive).

Q: What about the GI50 [4] of the same molecule?
A: The GI50 was > 100 µM (inactive).

Q: And the GI50 [5]?
A: Its GI50 is > 100 µM (inactive).

Q: What about the GI50 [6] of the same molecule?
A: Its GI50 is > 100 µM (inactive).

Q: And the GI50 [8]?
A: Its GI50 is > 100 µM (inactive).

Q: What about the GI50 [9] of the same molecule?
A: The GI50 was > 100 µM (inactive).

Q: And the GI50 [10]?
A: The GI50 was > 100 µM.

Q: What about the GI50 [11] of the same molecule?
A: The GI50 was > 100 µM (inactive).

Q: What about the GI50 [12] of the same molecule?
A: Its GI50 is > 100 µM (inactive).

Q: And the GI50 [13]?
A: Its GI50 is > 100 µM (inactive).

Q: What about the GI50 [14] of the same molecule?
A: The GI50 was > 100 µM (inactive).

Q: And the GI50 [15]?
A: Its GI50 is > 100 µM (inactive).

Q: What about the GI50 [16] of the same molecule?
A: Its GI50 is > 100 µM (inactive).

Q: And the GI50 [17]?
A: The GI50 was > 100 µM (inactive).

Q: What about the GI50 [18] of the same molecule?
A: The GI50 was > 100 µM (inactive).

Q: And the GI50 [19]?
A: The GI50 was > 100 µM (inactive).

Q: What about the GI50 [20] of the same molecule?
A: The GI50 was > 100 µM (inactive).

Q: And the GI50 [21]?
A: Its GI50 is > 100 µM (inactive).

Q: What about the GI50 [22] of the same molecule?
A: The GI50 was > 100 µM (inactive).

Q: What about the GI50 [23] of the same molecule?
A: The GI50 was > 100 µM (inactive).

Q: And the GI50 [24]?
A: Its GI50 is > 100 µM (inactive).

Q: What about the GI50 [25] of the same molecule?
A: The GI50 was > 100 µM (inactive).

Q: What about the GI50 [26] of the same molecule?
A: Its GI50 is > 100 µM (inactive).

Q: And the GI50 [27]?
A: Its GI50 is > 100 µM (inactive).

Q: And the GI50 [28]?
A: The GI50 was > 100 µM (inactive).

Q: And the GI50 [29]?
A: Its GI50 is > 100 µM (inactive).

Q: What about the GI50 [30] of the same molecule?
A: Its GI50 is > 100 µM (inactive).

Q: What about the GI50 [31] of the same molecule?
A: Its GI50 is > 100 µM (inactive).

Q: What about the GI50 [32] of the same molecule?
A: Its GI50 is > 100 µM (inactive).

Q: And the GI50 [33]?
A: The GI50 was > 100 µM (inactive).

Q: What about the GI50 [34] of the same molecule?
A: The GI50 was > 100 µM (inactive).

Q: And the GI50 [35]?
A: Its GI50 is > 100 µM (inactive).

Q: What about the GI50 [36] of the same molecule?
A: Its GI50 is > 100 µM (inactive).

Q: And the GI50 [37]?
A: Its GI50 is > 100 µM (inactive).

Q: And the GI50 [38]?
A: The GI50 was > 100 µM (inactive).

Q: And the GI50 [39]?
A: The GI50 was > 100 µM (inactive).

Q: And the GI50 [40]?
A: Its GI50 is > 100 µM (inactive).

Q: What about the GI50 [41] of the same molecule?
A: The GI50 was > 100 µM (inactive).

Q: What about the GI50 [42] of the same molecule?
A: The GI50 was > 100 µM (inactive).

Q: And the GI50 [43]?
A: Its GI50 is > 100 µM (inactive).

Q: And the GI50 [44]?
A: The GI50 was > 100 µM (inactive).

Q: What about the GI50 [45] of the same molecule?
A: Its GI50 is > 100 µM (inactive).

Q: And the GI50 [46]?
A: Its GI50 is > 100 µM (inactive).

Q: And the GI50 [47]?
A: The GI50 was > 100 µM (inactive).

Q: What about the GI50 [48] of the same molecule?
A: The GI50 was > 100 µM (inactive).

Q: And the GI50 [50]?
A: Its GI50 is > 100 µM (inactive).

Q: What about the GI50 [51] of the same molecule?
A: Its GI50 is > 100 µM (inactive).

Q: What about the GI50 [52] of the same molecule?
A: Its GI50 is > 100 µM (inactive).

Q: What about the GI50 [54] of the same molecule?
A: Its GI50 is > 100 µM (inactive).

Q: And the GI50 [55]?
A: The GI50 was > 100 µM (inactive).

Q: What about the GI50 [56] of the same molecule?
A: Its GI50 is > 100 µM (inactive).

Q: And the GI50 [57]?
A: The GI50 was > 100 µM (inactive).

Q: What about the GI50 [58] of the same molecule?
A: The GI50 was > 100 µM (inactive).
